Assay results as given in ChEMBL document CHEMBL4422675, “Pyrrolinone derivatives as a new class of P2X3 receptor antagonists Part 2: Discovery of orally bioavailable compounds” (Bioorg Med Chem Lett, 2019).

Columns and labels:
[1] = Oral bioavailability in rat at 1 mg/kg; type: ADME, organism-based; conditions: in vivo
[2] = Half life in rat at 0.5 mg/kg, iv or 1 mg/kg, po; type: ADME, organism-based; conditions: in vivo
[3] = in vivo; conditions: rat, iv, 0.5 mg/kg
[4] = Half life in rat at 1 mg/kg, iv; type: ADME, organism-based; conditions: in vivo
[5] = Cmax in rat at 3 mg/kg, po; type: ADME, organism-based; design: dose 3 mg/kg, route oral; conditions: in vivo
[6] = Oral bioavailability in rat at 3 mg/kg; type: ADME, organism-based; conditions: in vivo
[7] = AUC in rat at 3 mg/kg, po; type: ADME, organism-based; conditions: in vivo
[8] = Total clearance in rat at 1 mg/kg, iv; type: ADME, organism-based; conditions: in vivo

Compound	bioavailability [1] [%]	half-life [2] [h]	clearance [3] [mL/min/kg]	further results
CC(C)C(=O)C1=C(O)C(=O)N(c2ccc(-c3ccsc3)cc2)C1c1ccccc1OCC[S+](C)[O-] (stereo not given)	0.7	1.1	23.2	–
CCC(CC)C1C(C(=O)c2ccc(OC)cc2)=C(O)C(=O)N1c1ccc(-c2ccon2)cc1 (stereo not given)	18.9	4.2	5.1	–
COc1ccccc1[C@@H]1C(C(=O)C(C)C)=C([O-])C(=O)N1c1ccc(-c2ccsc2)cc1.[Na+]	–	–	–	half-life [4]: 3.2 h; Cmax [5]: 4230 ng/mL; bioavailability [6]: 37.4%; AUC [7]: 48400 ng·h/mL; clearance [8]: 0.39 mL/min/kg
COc1ccccc1C1C(C(=O)C(C)(C)C)=C(O)C(=O)N1c1ccc(-c2ccon2)cc1 (stereo not given)	77.9	2.6	1.3	–
CC(C)(C)C(=O)C1=C(O)C(=O)N(c2ccc(-c3ccsc3)cc2)C1c1ccccc1OCC(=O)O (stereo not given)	5.2	4.2	–	–
COc1ccccc1C1C(C(=O)C(C)C)=C(O)C(=O)N1c1ccc(-c2ccsc2)cc1 (stereo not given)	20	6.1	0.3	–
COc1ccc(C(=O)C2=C(O)C(=O)N(c3ccc(-c4ccon4)cc3)C2C2CCCCC2)cn1 (stereo not given)	28.1	1.4	4.6	–
C[S+]([O-])CCOc1ccccc1C1C(C(=O)C(C)(C)C)=C(O)C(=O)N1c1ccc(-c2ccsc2)cc1 (stereo not given)	23.2	1.4	13.7	–
CC(C)(C)C(=O)C1=C(O)C(=O)N(c2ccc(-c3cccs3)cc2)C1c1ccccc1OCCO (stereo not given)	65.2	2	1.3	–
CNC(=O)c1ccc(C(=O)C2=C(O)C(=O)N(c3ccc(-c4ccon4)cc3)C2C2CCCCC2)cc1 (stereo not given)	1.6	0.7	–	–
CC(C)(C)C(=O)C1=C(O)C(=O)N(c2ccc(-c3ccsc3)cc2)C1c1ccccc1OCCO (stereo not given)	39.5	3.3	–	–
O=C(O)c1ccc(C(=O)C2=C(O)C(=O)N(c3ccc(-c4ccon4)cc3)C2C2CCCCC2)cc1 (stereo not given)	3.7	1.9	–	–
CC(C)C(=O)C1=C(O)C(=O)N(c2ccc(-c3ccsc3)cc2)C1c1ccccc1OCCO (stereo not given)	40.8	1	–	–
COc1ccc(C(=O)C2=C(O)C(=O)N(c3ccc(-c4ccon4)cc3)C2c2ccccc2OC)cc1 (stereo not given)	19.9	0.5	8.8	–
COc1ccc(C(=O)C2=C(O)C(=O)N(c3ccc(-c4ccon4)cc3)C2c2ccccc2OCCO)cc1 (stereo not given)	9	0.5	–	–
CC(C)(C)C(=O)C1=C(O)C(=O)N(c2ccc(-c3ccon3)cc2)C1c1ccccc1OCCO (stereo not given)	49.9	2.1	2.9	–
CN(C)CCOc1ccccc1C1C(C(=O)C(C)(C)C)=C(O)C(=O)N1c1ccc(-c2ccsc2)cc1 (stereo not given)	15.5	1.5	7.3	–
O=C(C1=C(O)C(=O)N(c2ccc(-c3ccon3)cc2)C1C1CCCCC1)c1ccc(CO)cc1 (stereo not given)	6.7	1.4	3.8	–
